Measurements from publication PMC10135315 (Antioxidants, 2023).
Read-outs that look alike come from different tables or passages of the source.

Columns and labels:
[1] = target: T1, xanthine oxidase from bovine milk (Bos taurus, UniProt P80457); assay: Kinetic measurements of XO activity (Michaelis-Menten / Lineweaver-Burk); assay type: biochemical; conditions: for Ki / Vmax in presence of inhibitor: 4-30 µM xanthine; for Ki: from increase of KM for xanthine, competitive model; for Mechanism of XO inhibition: kinetic analysis; for Vmax in presence of inhibitor: pooled over the tested inhibitor concentrations
T1 construct: xanthine oxidase from bovine milk (0.5 U/mg); purchased Sigma-Aldrich (St. Louis, MO, USA); host or cells: bovine milk (natural source)
Description: The inhibition power of the various compounds and their mechanism of inhibition were assessed through kinetic measurements of the XO activity. To this aim, each assay was carried out in a 500 µL final volume reaction mixture, containing 4–30 µM xanthine dissolved in buffer A in the absence or presence of a fixed concentration of the various inhibitors. The reaction started with the addition of XO and was followed as indicated in steady-state assays. The kinetic parameters of the reaction, KM for the substrate and Vmax of the reaction, were derived either from the direct non-linear interpolation in the Michaelis–Menten hyperbolic equation of the initial rate of uric acid formation vs. the xanthine concentration or from a double reciprocal transformation of the kinetic data in Lineweaver–Burk plots. […] Therefore, the inhibition constant (Ki) was obtained from the increase of KM for xanthine in the presence of the inhibitor, according to the KM′ = KM•{1 + ([I]/Ki)} equation, where KM′ represents the KM for xanthine measured in the presence of the concentration [I] of the inhibitor.

[2] = target: T1, xanthine oxidase from bovine milk; assay: Reversibility of XO inhibition by dilution method; assay type: biochemical
Description: The reversibility of the inhibition mechanism was evaluated through a dilution method of a solution containing XO and inhibitor. To this aim, a sample of XO was incubated at 25 °C in the absence or presence of a concentrated solution of inhibitor. Aliquots of these mixtures were withdrawn at different times and 4-fold diluted through the addition of a solution containing the substrate xanthine. The samples were then immediately assayed for XO activity as previously indicated for the steady-state determinations.

[3] = target: T1, xanthine oxidase from bovine milk; assay: Steady-state determination of XO activity (uric acid formation at 295 nm), dose-dependent inhibition; assay type: biochemical; conditions: 75 µM xanthine; for IC50: steady-state determination, 25 °C, pH 7.8
Description: The activity of XO was measured spectrophotometrically at 25 °C by monitoring the increase of absorbance at 295 nm due to the formation of uric acid, using a Cary 100 UV-Vis Spectrophotometer (Agilent Technologies, Milan, Italy), essentially, as previously reported. […] The DMSO concentration carried over by the inhibitor was 0.5% (v/v); an identical concentration of DMSO was used in the absence of inhibitor. The reaction started with the addition of XO and was followed kinetically up to 30 s by continuously monitoring the absorbance. The initial rate of uric acid formation was derived from the linear part of the kinetics and expressed as ΔE/min. The effect of each inhibitor was evaluated through the ratio of residual XO activity measured in the presence of each inhibitor over that measured in the absence of inhibitor.

XO = conditions: cited from earlier work
[4] = known XO inhibitors co-crystallised into XO, no reference given

T1 sequence (P80457 whole entry): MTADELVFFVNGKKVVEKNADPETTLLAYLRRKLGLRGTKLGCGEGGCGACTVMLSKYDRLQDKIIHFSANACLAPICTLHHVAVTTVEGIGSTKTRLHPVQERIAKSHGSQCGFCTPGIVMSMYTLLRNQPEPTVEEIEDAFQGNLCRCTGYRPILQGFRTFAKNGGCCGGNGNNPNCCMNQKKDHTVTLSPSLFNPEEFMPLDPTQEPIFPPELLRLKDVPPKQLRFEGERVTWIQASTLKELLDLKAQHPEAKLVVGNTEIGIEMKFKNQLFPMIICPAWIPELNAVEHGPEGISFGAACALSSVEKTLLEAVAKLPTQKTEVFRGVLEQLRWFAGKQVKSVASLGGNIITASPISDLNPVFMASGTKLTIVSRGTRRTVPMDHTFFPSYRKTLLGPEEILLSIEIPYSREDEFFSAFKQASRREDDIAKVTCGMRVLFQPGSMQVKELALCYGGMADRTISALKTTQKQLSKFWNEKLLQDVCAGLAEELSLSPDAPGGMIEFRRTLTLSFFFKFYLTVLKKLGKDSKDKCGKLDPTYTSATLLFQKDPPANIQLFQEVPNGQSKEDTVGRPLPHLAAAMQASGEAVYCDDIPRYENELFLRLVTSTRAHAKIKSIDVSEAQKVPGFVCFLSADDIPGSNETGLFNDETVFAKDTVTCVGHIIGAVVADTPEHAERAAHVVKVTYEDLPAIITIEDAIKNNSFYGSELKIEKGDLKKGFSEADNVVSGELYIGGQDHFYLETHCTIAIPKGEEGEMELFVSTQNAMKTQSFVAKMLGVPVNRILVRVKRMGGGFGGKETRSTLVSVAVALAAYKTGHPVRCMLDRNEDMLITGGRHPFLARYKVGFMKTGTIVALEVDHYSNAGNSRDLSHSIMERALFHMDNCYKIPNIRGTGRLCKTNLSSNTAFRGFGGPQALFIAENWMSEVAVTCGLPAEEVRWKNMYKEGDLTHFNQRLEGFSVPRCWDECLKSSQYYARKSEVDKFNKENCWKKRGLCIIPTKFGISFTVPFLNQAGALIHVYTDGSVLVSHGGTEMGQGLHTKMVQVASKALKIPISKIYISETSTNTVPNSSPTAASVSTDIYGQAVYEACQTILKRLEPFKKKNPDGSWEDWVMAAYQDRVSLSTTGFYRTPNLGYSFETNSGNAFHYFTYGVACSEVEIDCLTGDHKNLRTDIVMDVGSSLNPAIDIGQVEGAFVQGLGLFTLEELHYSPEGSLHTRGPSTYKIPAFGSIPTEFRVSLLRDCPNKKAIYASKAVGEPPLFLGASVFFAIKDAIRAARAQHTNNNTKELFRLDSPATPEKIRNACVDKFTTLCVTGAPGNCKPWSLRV

Structure (SMILES) | Ki [1] [µM] | Mechanism of XO inhibition [1] | Vmax in presence of inhibitor [1] | Time-dependent reduction of XO activity ([2]; 60 µM inhibitor, 25 °C, up to 30 min) | Reversibility of inhibition ([2]; preincubation with XO at 25 °C up to 30 min, then 4-fold dilution (ALS-28: 60 µM to 15 µM)) | Inhibition profile of XO activity [3] | IC50 [3] [µM] | Inhibition mechanism (XO) | Inhibition mechanism (XO; [4])
O=C(O)c1cc(-c2ccc(Cl)cc2)ncn1 [ALS-28] | 2.7 ± 1.5 | competitive inhibitors | 0.113 ± 0.007 (n = 4) ΔE/min | no time-dependent reduction of XO activity | reversible inhibitor | dose-dependent inhibition | 18 | – | –
Brc1cncc(-c2nn[nH]n2)c1 [ALS-15] | 23 ± 9 | competitive inhibitors | 0.086 ± 0.003 (n = 4) ΔE/min | – | – | dose-dependent inhibition | 64 | – | –
Cc1nc(-c2ccc(OCC(C)C)c(C#N)c2)sc1C(=O)O [TEI-6720, febuxostat] | – | – | – | – | – | – | – | mixed-type inhibition | –
O=C(O)c1ccccc1O [salicylic acid] | – | – | – | – | – | – | – | – | competitive inhibitor
O=c1c(O)c(-c2ccc(O)c(O)c2)oc2cc(O)cc(O)c12 [quercetin] | – | – | – | – | – | – | – | – | competitive
N#Cc1cc(-c2n[nH]c(-c3ccncc3)n2)ccn1 [FYX-051, topiroxostat] | – | – | – | – | – | – | – | hybrid-type inhibition mechanism | –
O=C(O)c1cc(-c2cccc(F)c2)[nH]n1 [ALS-8] | 4.5 ± 1.5 | competitive inhibitors | 0.093 ± 0.007 (n = 4) ΔE/min | – | – | dose-dependent inhibition | 30 | – | –
O=C(O)c1cc2ccc(Br)cc2[nH]1 [ALS-1] | 41 ± 14 | competitive inhibitors | 0.087 ± 0.004 (n = 2) ΔE/min | – | – | dose-dependent inhibition | 82 | – | –
